Reference: patent US20260234165A1, “MACROCYCLIC COMPOUNDS, PREPARATION METHOD THEREFOR, AND USE THEREOF” (GENFLEET THERAPEUTICS (SHANGHAI) INC., priority 2004, published 2026)

What was measured:
[1] = tested on: p-ERK in NCI-H441 cells (KRAS G12V mutation); assay: Cell p-ERK assay (HTRF) in NCI-H441 cells; type: cell-based, human; conditions: Homo sapiens, NCI-H441, 3 h, NCI-H441 cells, 3 h compound incubation, HTRF p-ERK T202/Y204; read-out: H441 p-ERK IC50
Outline: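 Phospho-ERK inhibition measured by HTRF after a 3 h compound exposure (0.1% DMSO) in overnight-seeded cells; IC50 derived from dose-response fitting.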

[2] = Pharmacokinetic study in rats; type: in vivo, Sprague-Dawley (SD) rats; conditions: Sprague-Dawley, rat, plasma, male SD rats; for clearance: IV; for AUC / Cmax: PO (intragastric), dose 10 mg/kg; for AUC: read-out: AUC; for Cmax: read-out: Cmax
Excerpt: A total of 6 healthy adult male Sprague-Dawley (SD) rats were provided by Zhejiang Vital River Laboratory Animal Technology Co., Ltd. For each test compound, 6 healthy adult male SD rats were selected and randomly divided into 2 groups: an intravenous administration (IV) group and an intragastric administration (PO) group. The LC-MS/MS method was used to determine the drug concentrations in the plasma of rats at different time points after intravenous and intragastric administration of the test compounds. This experiment was intended to investigate the pharmacokinetic performance of the test compounds in rats and to evaluate the pharmacokinetic characteristics. Each drug used in the experiment was prepared from the test compound powder: An appropriate amount of test compound powder was weighed out, and appropriate amounts of DMSO, a 10% aqueous Solutol HS 15 solution, and a 6% aqueous HP-β-CD solution were sequentially added according to a volume ratio of 5:10:85. The mixture was vortexed and sonicated until clarification. The final concentration of the drug in the IV group was 0.5 mg/mL, and the final concentration of the drug in the PO group was 1 mg/mL; the concentrations could be adjusted according to actual needs. For the drug in the PO group of Z504, an appropriate amount of test compound powder was weighed out, and an appropriate amount of 0.5% MC+0.2% Tween 80 aqueous solution was added. The mixture was well mixed by vortexing to give a 1 mg/mL homogeneous suspension: the concentration could be adjusted according to actual needs.
All experimental rats were fasted overnight, and food intake was resumed 4 h after administration. For the rats in the IV group, the administration volume was set at 2 mL/kg, with Z554 and Z915 administered at a dose of 0.5 mg/kg and the other compounds at a dose of 1 mg/kg. For the rats in the PO group, the administration volume was 10 mL/kg and the dose was 10 mg/kg. The administration amount was adjusted according to the body weight of the rats on the day of administration. In the experiment, blood samples were collected from the rats in the IV group at multiple time points (0.0833 h, 0.25 h, 0.5 h, 1 h, 2 h, 4 h, 7 h, and 24 h) after administration, while blood samples were collected from the PO group at 0.25 h, 0.5 h, 1 h, 2 h, 4 h, 7 h, and 24 h after administration, with approximately 100 μL collected each time via the orbital blood collection method.
The blood samples were placed in centrifuge tubes containing EDTA-K2 and centrifuged at 8000 rpm for 4 min within 30 min to separate the supernatant plasma. The resulting plasma samples were stored at −20° C. for later use. For sample analysis, 20 μL of each of plasma samples and calibration standards was added to a 96-well plate, and 160 μL of acetonitrile containing 100 ng/mL tolbutamide was added. The samples were vortexed for 5 min for uniform mixing, and then centrifuged at 4000 rpm for 15 min. After the centrifugation was completed, 50 μL of supernatant was added to a 96-well plate containing 150 μL of deionized water. The plate was then sealed and shaken for uniform mixing. Sample analysis was performed by LC-MS/MS.
The sampling volume could be adjusted according to actual needs, but the final concentration should be kept unchanged.

| IC50 [1] | clearance ([2]; dose 1 mg/kg) | AUC [2] | Cmax [2] | clearance ([2]; dose 0.5 mg/kg) | Structure (SMILES) |
| --- | --- | --- | --- | --- | --- |
| 0.55 nM | 4 mL/min/kg | 5320 ng·h/mL | 605 ng/mL | – | CCn1c(-c2cc(C#CCN3CCCOCC3)cnc2[C@H](C)OC)c2c3cc(ccc31)-c1csc(n1)C[C@H](NC(=O)[C@H]1[C@H](C)[C@@H]1C)C(=O)N1CCC[C@H](N1)C(=O)OCC(C)(C)C2 (single isomer, unassigned) [Compound Z504] |
| 0.42 nM | – | 16600 ng·h/mL | 2780 ng/mL | 2.52 mL/min/kg | CCn1c(-c2cc(C#CCN3CCC3)cnc2[C@H](C)OC)c2c3cc(ccc31)-c1csc(n1)C[C@H](NC(=O)[C@H]1[C@H](C)[C@@H]1C)C(=O)N1CCC[C@H](N1)C(=O)OCC(C)(C)C2 (single isomer, unassigned) [Compound Z554] |
| 0.37 nM | 5.31 mL/min/kg | 4020 ng·h/mL | 702 ng/mL | – | CCn1c(-c2cc(C#CCN3CCC(C(F)(F)F)CC3)cnc2[C@H](C)OC)c2c3cc(ccc31)-c1csc(n1)C[C@H](NC(=O)[C@H]1[C@H](C)[C@@H]1C)C(=O)N1CCC[C@H](N1)C(=O)OCC(C)(C)C2 (atropisomer, axis not shown; (Ra)) [Compound Z778] |
| 1.14 nM | 1.83 mL/min/kg | 8400 ng·h/mL | 1110 ng/mL | – | CCn1c(-c2cc(C#CCN3CCCOCC3)cnc2[C@H](C)OC)c2c3cc(ccc31)-c1csc(n1)C[C@H](NC(=O)CC(C)C)C(=O)N1CCC[C@H](N1)C(=O)OCC(C)(C)C2 (single isomer, unassigned) [Compound Z803] |
| 0.26 nM | 2.46 mL/min/kg | 14600 ng·h/mL | 3010 ng/mL | – | CCn1c(-c2cc(C#CCN3CCCOCC3)cnc2[C@H](C)OC)c2c3cc(ccc31)-c1csc(n1)C[C@H](NC(=O)[C@H]1C[C@@H]1C)C(=O)N1CCC[C@H](N1)C(=O)OCC(C)(C)C2 (single isomer, unassigned) [Compound Z604] |
| 0.39 nM | 11.8 mL/min/kg | 2940 ng·h/mL | 738 ng/mL | – | CCn1c(-c2cc(C#C[C@@H]3COCCN3C)cnc2[C@H](C)OC)c2c3cc(ccc31)-c1csc(n1)C[C@H](NC(=O)[C@H]1[C@H](C)[C@@H]1C)C(=O)N1CCC[C@H](N1)C(=O)OCC(C)(C)C2 (atropisomer, axis not shown; (Ra)) [Compound Z672, (1r,2R,3S)—N-((6^3S,4S,Z)-1^1-ethyl-(Ra)-1^2-(2-((S)-1-methoxyethyl)-5-(((R)-4-methylmorpholin-3-yl)ethynyl)pyridin-3-yl)-10,10-dimethyl-5,7-dioxo-6^1,6^2,6^3,6^4,6^5,6^6hexahydro-1^1H-8-oxa-2(4,2)-thiazola-1(5,3)-indola-6(1,3)-pyridazinacycloundecaphane-4-yl)-2,3-dimethylcyclopropane-1-carboxamide] |
| 0.68 nM | – | 6840 ng·h/mL | 1730 ng/mL | 6 mL/min/kg | CCn1c(-c2cc(C#CCN3CCCOCC3)cnc2[C@H](C)OC)c2c3cc(ccc31)-c1csc(n1)C[C@H](NC(=O)CC1CC1)C(=O)N1CCC[C@H](N1)C(=O)OCC(C)(C)C2 (atropisomer, axis not shown; (Ra)) [Compound Z915] |
